Here are results for three compounds from ChEMBL document CHEMBL1129200, “Synthesis and cytotoxic activity of phenyl-hexahydropyrrolo[3,4-c]carbazoles” (Bioorg Med Chem Lett, 1996).

What is called IC50 is the point on the concentration scale where inhibition reaches its midpoint. A lower IC50 goes with inhibition by little substance. As usually defined, the GI50 is the concentration giving 50% growth inhibition. Read a high GI50 as less potent growth inhibition.

The structures appear in SMILES notation.

The subject of experiment [1] is SK-MEL-28. The experiment in a line: Cytotoxic activity against MEL-28 cell lines. Particulars: Homo sapiens. It counts as functional, cell-based.
In experiment [2] the test system is P388. The experiment can be described thus: Cytotoxic activity against P-388 cell lines. The class given is functional, cell-based. The settings on record: Mus musculus.
Experiment [3] relates to HT-29. The experiment in a line: Cytotoxic activity against HT-29 cell lines. It counts as functional, cell-based. Particulars: Homo sapiens.
Experiment [4] has as its system A549. The experiment can be described thus: Cytotoxic activity against A-549 cell lines. The class given is functional, cell-based. Particulars: Homo sapiens.
The test system of experiment [5] is HOP-62. The experiment in a line: Cytotoxic activity against HOP-62 non small cell lung cancer cell lines. It counts as functional. The settings on record: Homo sapiens.
Experiment [6] has as its system HL-60. The experiment can be described thus: Cytotoxic activity against HL-60(TB) leukemia cell lines. It counts as functional. The settings on record: Homo sapiens.
The subject of experiment [7] is SK-MEL-2. The experiment in a line: Cytotoxic activity against SK-MEL-2 melanoma cell lines. The class given is functional. Particulars: Homo sapiens.
For experiment [8], the system named is OVCAR-4. The experiment can be described thus: Cytotoxic activity against OVCAR-4 ovarian cancer cell lines. The class given is functional. Particulars: Homo sapiens.
The test system of experiment [9] is U-251. The experiment can be described thus: Cytotoxic activity against U251 CNS tumor cell line cell lines. The class given is functional. The settings on record: Homo sapiens.
Experiment [10] deals with MDA-N. The experiment can be described thus: Cytotoxic activity against MDA-N breast cancer cell lines. It counts as functional. Particulars: Homo sapiens.
Experiment [11] deals with K562. The experiment can be described thus: Cytotoxic activity against K-562 leukemia cell lines. It counts as functional. Particulars: Homo sapiens.
Experiment [12] concerns HOP-92. The experiment in a line: Cytotoxic activity against HOP-92 non small cell lung cancer cell lines. It counts as functional. The settings on record: Homo sapiens.
Experiment [13] relates to MDA-MB-435. The experiment can be described thus: Cytotoxic activity against MDA-MB-435 breast cancer cell lines. The class given is functional. The settings on record: Homo sapiens.
Experiment [14] concerns T47D. The experiment in a line: Cytotoxic activity against T-47D breast cancer cell lines. It counts as functional. Particulars: Homo sapiens.
The subject of experiment [15] is A498. The experiment in a line: Cytotoxic activity against A 498 renal cancer cell lines. The class given is functional. Particulars: Homo sapiens.
Experiment [16] relates to RXF 393. The experiment in a line: Cytotoxic activity against […] renal cancer cell lines. It counts as functional. Particulars: Homo sapiens.
Experiment [17] concerns BT-549. The experiment can be described thus: Cytotoxic activity against […] breast cancer cell lines. The class given is functional. The settings on record: Homo sapiens.
Experiment [18] relates to UACC-62. The experiment in a line: Cytotoxic activity against UACC-62 melanoma cell lines. The class given is functional. Particulars: Homo sapiens.
Experiment [19] has as its system SNB-75. The experiment can be described thus: Cytotoxic activity against SNB-75 CNS tumor cell line cell lines. It counts as functional. The settings on record: Homo sapiens.
In experiment [20] the test system is SNB-19. The experiment can be described thus: Cytotoxic activity against SNB-19 CNS tumor cell lines. The class given is functional. Particulars: Homo sapiens.

As for `COc1cc([C@@H]2Cc3[nH]c4ccc(Br)cc4c3[C@@H]3C(=O)N(c4ccccc4)C(=O)[C@H]23)cc(OC)c1OC`, the IC50 in experiment [1], in experiment [2], in experiment [3] and in experiment [4] was over 17.8 µM each time.
Consider `COc1cc([C@@H]2Cc3[nH]c4ccccc4c3[C@@H]3C(=O)N(c4ccccc4)C(=O)[C@H]23)cc(OC)c1OC`, for which the GI50 was 16.2 µM in [5]; 31.6 µM in [6]; 27.5 µM in [7]; 26.9 µM in experiment [8]; 34.7 µM in experiment [9]; 30.2 µM in experiment [10]. Further, the GI50 was 31.6 µM in [11]; 13.2 µM in experiment [12]; 21.9 µM in [13]; 25.1 µM in [14]; 33.1 µM in experiment [15]; 20.4 µM in [16]. Also, the 50% growth inhibitory concentration (GI50) in [17] was 25.1 µM; in experiment [18] it was 24 µM; in experiment [19], 26.9 µM; in [20], 25.7 µM. The concentration for half-maximal inhibition (IC50) in experiment [1] was found to be 2.1 µM; in [2], 0.5 µM; in [3], 2.1 µM; in experiment [4], 2.1 µM.
Regarding `COc1cc([C@@H]2Cc3[nH]c4ccc(C)cc4c3[C@@H]3C(=O)N(c4ccccc4)C(=O)[C@H]23)cc(OC)c1OC`, the IC50 in experiment [1], in [2], in [3] and in [4] was 20.1 µM each time.
